Measurements reported in publication PMC8472154 (Molecules, 2021).
Read-outs that look alike come from different tables or passages of the source. Marks after values point to notes of the source that are not given here.

Experiments:
[1] = Nitric oxide free radical scavenging activity (sodium nitroprusside); design: key to Half Maximal Inhibitory Concentration IC50 NO.: ---: no activity; conditions: for Half Maximal Inhibitory Concentration IC50 NO.: mean ± SD, triplicate; for nitric oxide radical scavenging activity: at the concentrations permitted to evaluate, Figure 3C
Protocol: The essential oil NO scavenging activity was estimated using the protocol described by El Guendouz et al. The inhibition percentage was calculated using the formula: Inhibition = [(A0 − (A1 − A2)/A0 × 100]. The A0 is the absorbance of sodium nitroprusside without sample, A1 and A2 were the absorbance of the sample with and without sodium nitroprusside.

acetylcholinesterase [2] = target: T1, acetylcholinesterase (Homo sapiens, UniProt P22303); assay: biochemical; type: biochemical
Protocol: The inhibitory activity of the essential oils on acetylcholinesterase was evaluated according to the method previously described. The following formula was used to determine the percentage of inhibition action: Inhibition = [(A0 − A1)/A0) × 100]; where A0 is the absorbance of the control and A1 is the absorbance of the sample.

E. coli DSM 1077 = assay: Agar disc diffusion; type: cell-based, Escherichia coli; conditions: 5 µL per 6 mm disc, 24 h, diameter including disc, chloramphenicol 30 μg/mL
Protocol: (§1) The Gram negative bacterium Escherichia coli DSM 1077, and the Gram positive Staphylococcus aureus ATCC 6538 and the methicillin-resistant S. aureus 15 (MRSA 15) were used in the present study. The bacterial strains were recovered from −80 °C in the culture medium Brain Heart Infusion (BHI, Oxoid, Basingstock, UK), when required agar (VWR, Radnor, Philadelphia, PA, USA) at 1.5% w/v.
(§2) The bacterial susceptibility to the combinations Ro:La:Ca at ratio 1:1:1, Ro:La:Ca at ratio 2/3:1/6:16, Ro:La:Ca at ratio 1/6:2/3:16, Ro:La:Ca at ratio 1/6:1/6:2/3, and the components linalool, 1,8 cineole, and camphor, were performed by the agar disc diffusion technique as previously described. Briefly, 100 µL of the bacterial suspension at an OD600nm 0.3–0.4 was inoculated in BHI agar, and sterile discs (∅ 6 mm) were distributed over the surface. A volume of 5 µL of each EO and the individual components 1,8-cineole (52.62 mg/mL), and linalool (16.13 mg/mL), were deposited in the center of each disc. The plates were incubated for 24 h. The diameter of the inhibition zone including the disc was measured. The assay was performed in triplicate (n = 6).

[3] = tested on: methicillin-resistant S. aureus 15 (MRSA 15); assay: Agar disc diffusion; type: cell-based, Staphylococcus aureus; conditions: 5 µL per 6 mm disc, 24 h, diameter including disc, chloramphenicol 30 μg/mL
Protocol: as §1, §2

S. aureus ATCC 6538 = assay: Agar disc diffusion; type: cell-based, Staphylococcus aureus; conditions: 5 µL per 6 mm disc, 24 h, diameter including disc, chloramphenicol 30 μg/mL
Protocol: as §1, §2

acetylcholinesterase [4] = target: T1, acetylcholinesterase; conditions: cited from earlier work
tyrosinase [5] = assay: Tyrosinase inhibition assay (L-DOPA oxidation); type: biochemical; design: inhibition: dose or concentration left out as unconfirmed; conditions: Figure 4C; read-out: tyrosinase inhibition percentage, major terpenes
Protocol: (§3) The tyrosinase inhibition was carried out by the tyrosinase-dependent L-3,4-dihydroxyphenylalanine (L-DOPA) oxidation assay as previously described. The following formula was used to determine the percentage of inhibition action: Inhibition = [(A0 − A1)/A0) × 100]; with A0 as the absorbance of the control and A1 as the absorbance of the sample.

5-lipoxygenase = 5-lipoxygenase (Glycine max, UniProt P08170); assay: Lipoxygenase inhibition assay (linoleic acid substrate); type: biochemical
Protocol: The 5-lipoxygenase assay was carried out according to the method described by El Guendouz et al. The following formula was used to determine the percentage of inhibition action: Inhibition = [(A0 − A1)/A0) × 100]; where A0 is the absorbance of the control and A1 is the absorbance of the sample.

[6] = Hydrogen peroxide scavenging activity (colorimetric); design: key: ---: no activity; conditions: mean ± SD, triplicate
Protocol: The scavenging hydrogen peroxide was evaluated by a colorimetric assay according to Gupta and Sharma. […] Tests were carried out in triplicate.

[7] = Superoxide anion radical scavenging (nonenzymatic PMS-NADH system); design: key: ---: no activity; conditions: mean ± SD, triplicate
Protocol: Superoxide anion free radical inhibition ability was evaluated using a nonenzymatic PMS-NADH (phenazine methosulfate–nicotinamide adenine dinucleotide) system as previously reported. The inhibition quantification was performed as aforementioned.

α-glucosidase = α-glucosidase (Saccharomyces cerevisiae, UniProt P53341); assay: α-Glucosidase inhibition assay; type: biochemical; conditions: mean ± SD, triplicate
Protocol: The α-glucosidase inhibitor capacity of the essential oils was determined as described by El-Guendouz et al. The crease of absorbance was performed at 405 nm. The inhibition percentage of the enzyme was calculated as follows: I% = [(A0 −A1)/A0) × 100]; where A0 is the absorbance of the control and A1 is the absorbance of the sample. The trials were triplicated.

[8] = DPPH free radical-scavenging activity; conditions: mean ± SD, triplicate
Protocol: The radical scavenging capacity was estimated according to Bounatirou et al. using 2,20-diphenylpicrylhydrazyl (DPPH) free radicals. The radical inhibition percentage was calculated with the equation: Inhibition = [(A0 − A1)/A0 × 100]; A0 stands for the absorbance of the control and A1 stands for the absorbance of the sample. […] Tests were carried out in triplicate.

S. aureus = tested on: S. aureus; design: method as in PMID 12485339; conditions: previous study; cited from earlier work
E. coli = tested on: E. coli; design: method as in PMID 12485339; conditions: previous study; cited from earlier work
MRSA strains = tested on: MRSA strains; design: method as in PMID 31461850; conditions: cited from earlier work
[9] = tested on: S. aureus ATCC 6538 biofilm; assay: Biofilm formation inhibition (crystal violet); type: cell-based, Staphylococcus aureus; conditions: EO at 2.5, 5 and 10 μL/mL; chlorohexidine 0.2% v/v; 24 h; versus control culture; Figure 5
Protocol: as §1
(§4) The inhibition of biofilm formation was done using the crystal violet assay. Briefly, 150 µL of an overnight culture prepared as previously mentioned was centrifuged for 10 min at 4 °C. For the preparation of the bacterial suspension, 150 µL of BHI medium supplemented with EOs at the 2.5 µL/mL, 5 µL/mL and 10 µL/mL, chlorhexidine 0.2% (v/v), n-propanol (20%), was added to the centrifuged bacterial culture. Each well containing 180 µL of BHI supplemented with EOs at the appropriate concentration was inoculated with 20 µL of the previous bacterial suspension. The cultures with no EO and in the presence of chlorohexidine (0.2 %, v/v), were used as control. The culture was left to adhere and form a biofilm for 24 h. After this incubation time, non-adherent cells were eliminated and the wells were washed twice with PBS; then, the microplate was left to dry for 15–30 min. […] The absorbance was measured at 595 nm after 15–20 min incubation.

MRSA 15 biofilm = assay: Biofilm formation inhibition (crystal violet); type: cell-based, Staphylococcus aureus; conditions: EO at 2.5, 5 and 10 μL/mL; chlorohexidine 0.2% v/v; 24 h; versus control culture; Figure 5
Protocol: as §1, §4

E. coli DSM 1077 biofilm = assay: Biofilm formation inhibition (crystal violet); type: cell-based, Escherichia coli; conditions: EO at 2.5, 5 and 10 μL/mL; chlorohexidine 0.2% v/v; 24 h; versus control culture; Figure 5
Protocol: as §1, §4

tyrosinase [10] = target: T2, tyrosinase (Homo sapiens, UniProt P14679); assay: Tyrosinase inhibition assay (L-DOPA oxidation); type: biochemical; design: inhibition: dose or concentration left out as unconfirmed; conditions: 50 mg/mL; Figure 4C
T2 sequence (P14679 19-529): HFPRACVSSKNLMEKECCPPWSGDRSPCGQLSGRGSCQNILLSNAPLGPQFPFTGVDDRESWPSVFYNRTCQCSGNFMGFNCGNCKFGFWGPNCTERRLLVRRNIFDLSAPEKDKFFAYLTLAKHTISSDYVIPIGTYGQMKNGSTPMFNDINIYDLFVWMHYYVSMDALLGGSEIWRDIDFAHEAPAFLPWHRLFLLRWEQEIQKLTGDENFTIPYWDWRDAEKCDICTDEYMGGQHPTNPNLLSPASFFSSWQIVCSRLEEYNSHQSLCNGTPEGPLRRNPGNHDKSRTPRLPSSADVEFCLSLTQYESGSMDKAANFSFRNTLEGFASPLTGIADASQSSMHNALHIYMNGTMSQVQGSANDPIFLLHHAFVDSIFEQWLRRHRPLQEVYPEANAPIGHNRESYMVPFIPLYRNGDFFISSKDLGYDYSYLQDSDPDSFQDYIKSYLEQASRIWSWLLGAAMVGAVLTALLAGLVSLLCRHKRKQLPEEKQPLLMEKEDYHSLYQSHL
Protocol: as §3

Sequence of 5-lipoxygenase (P08170 whole entry): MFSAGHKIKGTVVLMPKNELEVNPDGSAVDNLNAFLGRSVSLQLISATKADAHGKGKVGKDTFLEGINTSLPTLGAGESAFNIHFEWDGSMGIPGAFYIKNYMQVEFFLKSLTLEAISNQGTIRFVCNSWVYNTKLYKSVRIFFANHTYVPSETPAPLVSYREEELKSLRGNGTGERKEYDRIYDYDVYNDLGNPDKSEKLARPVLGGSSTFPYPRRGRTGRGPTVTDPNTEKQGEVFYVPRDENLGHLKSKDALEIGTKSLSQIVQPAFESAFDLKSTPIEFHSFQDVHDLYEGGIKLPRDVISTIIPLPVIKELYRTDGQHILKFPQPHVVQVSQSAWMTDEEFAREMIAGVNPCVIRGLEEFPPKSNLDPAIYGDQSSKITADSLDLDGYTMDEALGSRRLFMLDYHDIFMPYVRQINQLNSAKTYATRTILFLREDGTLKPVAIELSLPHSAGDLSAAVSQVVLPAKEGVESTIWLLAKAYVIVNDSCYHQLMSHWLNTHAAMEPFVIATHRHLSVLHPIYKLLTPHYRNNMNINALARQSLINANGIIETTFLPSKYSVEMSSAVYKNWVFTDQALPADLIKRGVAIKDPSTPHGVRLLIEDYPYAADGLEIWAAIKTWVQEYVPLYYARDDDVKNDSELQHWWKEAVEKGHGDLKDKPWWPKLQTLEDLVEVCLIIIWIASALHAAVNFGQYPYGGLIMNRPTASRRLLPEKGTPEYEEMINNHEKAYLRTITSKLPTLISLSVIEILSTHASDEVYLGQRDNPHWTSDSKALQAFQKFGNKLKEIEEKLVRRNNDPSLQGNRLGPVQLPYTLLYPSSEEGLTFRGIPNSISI
T1 sequence (P22303 32-614, species assumed): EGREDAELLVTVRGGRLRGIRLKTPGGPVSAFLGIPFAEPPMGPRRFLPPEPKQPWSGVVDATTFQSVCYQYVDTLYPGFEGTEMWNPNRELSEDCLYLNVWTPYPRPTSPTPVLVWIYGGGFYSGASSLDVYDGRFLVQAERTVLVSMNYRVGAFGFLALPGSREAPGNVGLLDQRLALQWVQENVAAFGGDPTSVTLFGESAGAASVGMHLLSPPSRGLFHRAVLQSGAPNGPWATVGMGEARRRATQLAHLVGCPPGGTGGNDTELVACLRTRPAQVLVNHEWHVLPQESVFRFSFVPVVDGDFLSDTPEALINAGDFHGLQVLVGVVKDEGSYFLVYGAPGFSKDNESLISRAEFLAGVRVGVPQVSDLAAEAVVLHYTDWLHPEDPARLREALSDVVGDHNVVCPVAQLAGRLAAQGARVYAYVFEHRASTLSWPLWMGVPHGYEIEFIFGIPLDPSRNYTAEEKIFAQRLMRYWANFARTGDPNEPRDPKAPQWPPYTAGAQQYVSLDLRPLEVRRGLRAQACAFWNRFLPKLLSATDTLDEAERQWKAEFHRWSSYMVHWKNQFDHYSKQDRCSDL
Sequence of α-glucosidase (P53341 whole entry): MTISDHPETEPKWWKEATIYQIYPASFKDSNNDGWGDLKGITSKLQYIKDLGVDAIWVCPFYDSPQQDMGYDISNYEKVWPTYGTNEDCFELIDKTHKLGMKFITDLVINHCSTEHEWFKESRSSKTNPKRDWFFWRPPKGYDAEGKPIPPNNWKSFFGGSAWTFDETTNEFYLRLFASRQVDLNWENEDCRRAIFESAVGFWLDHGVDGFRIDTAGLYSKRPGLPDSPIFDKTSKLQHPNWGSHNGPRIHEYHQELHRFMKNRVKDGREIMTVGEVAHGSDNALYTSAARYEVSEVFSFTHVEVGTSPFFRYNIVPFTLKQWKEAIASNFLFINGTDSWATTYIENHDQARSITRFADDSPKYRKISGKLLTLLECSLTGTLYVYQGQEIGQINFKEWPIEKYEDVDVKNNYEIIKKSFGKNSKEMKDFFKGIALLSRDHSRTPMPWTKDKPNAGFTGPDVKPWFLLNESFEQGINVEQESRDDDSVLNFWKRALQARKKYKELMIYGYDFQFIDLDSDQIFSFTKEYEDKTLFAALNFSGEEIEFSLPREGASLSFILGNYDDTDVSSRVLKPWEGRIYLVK

SMILES | Half Maximal Inhibitory Concentration IC50 NO. [1] | Inhibition Zone E. coli DSM 1077 (E. coli DSM 1077) | Inhibition Zone Methicillin Resistant S. aureus 15 [3] | Inhibition Zone S. aureus ATCC 6538 (S. aureus ATCC 6538) | IC50 (acetylcholinesterase [4]) [mM] | inhibition (tyrosinase [5]) [%] | lipoxygenase inhibition / anti-inflammatory activity (5-lipoxygenase) | nitric oxide radical scavenging activity [1] | Half Maximal Inhibitory Concentration IC50 H2O2 [6] | Half Maximal Inhibitory Concentration IC50 Superoxide [7] | also measured
CC12CCC(CC1)C(C)(C)O2 [1,8-Cineole] | --- | 12.16 ± 0.62 ^b,c mm | 12.16 ± 0.47 ^b mm | 10.5 ± 0.70 ^c mm | 0.0648 | > 20 | weak anti-inflammatory activity |  |  |  | IC50 (acetylcholinesterase [2]): 1.17 mM; Inhibition Zone S. aureus ATCC 6538 (S. aureus ATCC 6538; listed as 1,8-cineole): 10.5 ± 0.70 mm
CC1(C)C2CCC1(C)C(O)C2 (stereo not shown) [Borneol] |  |  |  |  |  | > 20 |  | had activity | --- |  | IC50 (acetylcholinesterase [2]; mean ± SD, triplicate, read-out: Half Maximal Inhibitory Concentration IC50 Acetylcholinesterase (converted)): 3.11 mM
CC12CCC(CC1=O)C2(C)C (stereo not shown) [Camphor] | --- | 13.00 ± 0.40 ^b mm | 11.67 ± 1.02 ^b,c mm | 10.5 ± 1.22 ^c mm |  | > 20 | weak anti-inflammatory activity |  | --- | --- | Inhibition Zone S. aureus ATCC 6538 (S. aureus ATCC 6538; listed as camphor): 10.5 ± 1.22 mm
O=C(N[C@H](CO)[C@H](O)c1ccc([N+](=O)[O-])cc1)C(Cl)Cl [Chloramphenicol] |  |  | 6.00 ± 0.00 ^d mm | 10.16 ± 0.70 ^c mm |  |  |  |  |  |  | zone of inhibition at 30 µg/mL (E. coli DSM 1077; Escherichia coli, DSM1077): 10.8 ± 0.47 mm; zone of inhibition at 30 µg/mL ([3]; Staphylococcus aureus, MRSA): 6 mm; zone of inhibition at 30 µg/mL (S. aureus ATCC 6538; Staphylococcus aureus, ATCC6538): 10.2 ± 0.7 mm
C=C(C)[C@H]1CC=C(C)CC1 [Limonene] |  |  |  |  |  |  |  | had activity |  |  | Half Maximal Inhibitory Concentration IC50 Acetylcholinesterase (acetylcholinesterase [2]; mean ± SD, triplicate): 0.08 ± 0.00 ^e,f,g,h,i mg/mL; Half Maximal Inhibitory Concentration IC50 α-Glucosidase (α-glucosidase): 1.18 ± 0.06 ^a mg/mL; Half Maximal Inhibitory Concentration IC50 Lipoxygenase (5-lipoxygenase; mean ± SD, triplicate): 0.11 ± 0.01 ^f mg/mL
C=CC(C)(O)CCC=C(C)C (stereo not shown) [Linalool] | --- | 15.67 ± 0.23 ^a mm | 13.83 ± 1.24 ^b mm | 12.83 ± 0.47 ^b,c mm |  | > 20 | weak anti-inflammatory activity |  |  | 20.41 ± 1.47 ^b mg/mL | Half Maximal Inhibitory Concentration IC50 NO. ([1]; listed as linalool): had no ability; Inhibition Zone E. coli DSM 1077 (E. coli DSM 1077; listed as linalool): 15.67 ± 0.23 mm; Half Maximal Inhibitory Concentration IC50 DPPH [8]: 102.34 ± 3.13 ^b mg/mL; Inhibition Zone Methicillin Resistant S. aureus 15 ([3]; listed as linalool): 13.83 ± 1.24 mm; Inhibition Zone S. aureus ATCC 6538 (S. aureus ATCC 6538; listed as linalool): 12.83 ± 0.47 mm; Half Maximal Inhibitory Concentration IC50 α-Glucosidase (α-glucosidase; listed as linalool): did not have activity; inhibition zone against S. aureus (S. aureus): 13.0 ± 4.2 mm; inhibition zone against E. coli (E. coli): 10.3 ± 0.5 mm
C=CC(C)(CCC=C(C)C)OC(C)=O (stereo not shown) [Linalyl acetate] | --- |  |  |  |  | > 20 |  |  | --- | 18.23 ± 0.01 ^b mg/mL | Half Maximal Inhibitory Concentration IC50 NO. ([1]; listed as linalyl acetate): had no ability; Half Maximal Inhibitory Concentration IC50 DPPH [8]: 148.61 ± 1.28 ^a mg/mL; MIC against MRSA strains (MRSA strains): 450.50 ± 0.00 μL/mL; Half Maximal Inhibitory Concentration IC50 α-Glucosidase (α-glucosidase; listed as linalyl acetate): did not have activity
[H]/N=C(\N/C(=N/[H])NCCCCCCNC(=N)NC(=N)Nc1ccc(Cl)cc1)Nc1ccc(Cl)cc1 [chlorohexidine] |  |  |  |  |  |  |  |  |  |  | biofilm formation of S. aureus ATCC 6538 [9]: induced the biofilm formation; biofilm formation of MRSA 15 (MRSA 15 biofilm): reduced biofilm formation; biofilm formation of E. coli DSM 1077 (E. coli DSM 1077 biofilm): reduced biofilm formation
CC1=CCC2CC1C2(C)C (stereo not drawn) [α-Pinene] |  |  |  |  | 0.147 |  |  | had activity | --- |  | tyrosinase inhibition percentage, major terpenes (tyrosinase [10]): lowest ability
CC1=CC[C@@H](C(C)(C)O)CC1 [α-Terpineol] |  |  |  |  | 8.43 | > 20 | weak anti-inflammatory activity | had activity | --- |  | Half Maximal Inhibitory Concentration IC50 α-Glucosidase (α-glucosidase): had no activity
